We go through 4 compounds from PMC6586287, “Blocking transmembrane219 protein signaling inhibits autophagy and restores normal cell death” (PLoS ONE, 2019).

Entries after “also recorded” stand apart in the source; their conditions may differ.

Series [1] relates to LC3 processing in Vero cells. In words: LC3-II punctate staining, LC3-mRFP transfected Vero cells. The series is classed as cell-based. As for the experimental part:
Immunostaining was performed as described previously (44). Briefly, cells were grown on a coverslip overnight at 5×10^5 cells/ml. 1 μl of Hoechst stain (10 μg/μl) was added to the cells for 10 min at 37°C. For tracking TM219 short cytoplasmic peptide assay, we pretreated the cells with the peptides at concentration of 0, 25, or 250 nM, then added 1 μM IGFBP3 for an hour in DMEM serum free medium. Cells were fixed with 4% paraformaldehyde and permeabilized with 1% triton x100. Cells were then blocked overnight with 10% fetal bovine serum (FBS) in PBS. Finally, cells were stained with streptavidin conjugated to Alex555 (Thermofisher Scientific) for 30 minutes in the same blocking buffer. For immunostaining, cells were stained with the primary antibody according to the manufacturer’s recommendation in the same blocking buffer. The cells were washed 10 times with PBS. Cells were blocked for 1 h with 10% FBS and then stained with secondary antibody conjugated to fluorescence dye (Thermofisher Scientific). As controls, we used secondary antibodies alone. Cells were washed 10 times with PBS and mounted with fluoromount G (Microscopic Science) before examination.
We stained the intact cellular mitochondria using TMRM dye according to the provider recommendations (Thermofisher Scientific). To evaluate the cell membrane permeability in 3D culture, we used membrane impermeable dye propodeum iodide (PI), and the membrane permeable dye (Hoechst dye) to stain the cell nuclei according to the manufacturer recommendations (Thermofisher Scientific). For autophagy efflux assay, we used chloroquine (Sigma-Alderish) (CQ) at final concentration of 200 μM as described previously. Collected images were analyzed with ImageJ software.

The subject of the next series is MDA-MB231 cells. Nature of the series: pHLIP-Cy3 insertion, fluorescence microscopy, MDA-MB231 cells in 2D and 3D culture. The class given is cell-based, human. As to conditions: 2D (3 days) and 3D (0.5% low melting agarose, 5 days) culture; 6 h at 37°C in DMEM buffered with PBS. As for the experimental part:
A- MDA-MB231 cells were grown in a complete DMEM medium for 3 days or in 0.5% low melting agarose in complete medium for 5 days were treated with phLIP-Cy3 peptide in DMEM buffered with PBS for 6 hour at 37°C. Growth media were replaced with completed DMEM medium buffered with carbonate. Cells were imaged for insertion of the peptide. […] Nuclei of the cells were stained with Hoechst stain (blue) B-Cells pretreated with pHLIP-TM219 peptide or pHLIP peptide alone for 5 days in 0.5% low melting agarose in DMEM complete media supplemented with 1 μM IGFBP3. The peptides were mixed with DMEM buffered with PBS and added to the spheroids grown in low melting agarose. After 6 hours, the media were replaced with completed DMEM media buffered with carbonate pH 7.2. Cells were incubated for additional 9 days at 37°C in a CO2 incubator. […] Living cells were assessed by Hoechst dye stain (Blue).

The next series concerns MCF7 cells. Nature of the series: pHLIP-Cy3 insertion into cell membrane, fluorescence microscopy, MCF7 cells. The class given is cell-based, human. As to conditions: pH 7.4 or pH 5.5, 5 min. As for the experimental part:
Fig 6 TM219 short cytoplasmic protein tail peptide disrupts the interaction between calmodulin and TM219 protein. […] As the concentration of the free peptide increased, the changes in FP signal decreased. […] B- MCF7 cells treated with pHLIP-cy3 peptide at pH 7.4 or pH 5.5 for 5 minutes. Cells were fixed and examined with fluorescence microscopy. […] Nuclei were stained with Hoechst dye (blue). C-MCF7 cells pretreated with either SCTT-pHLIP or pHLIP peptide alone were treated with 1μM IGFBP3 for 1hour in DMEM serum free medium. Cell lysates were subjected to immunoblot using anti-human phosphor-beclin1 antibody. […] TEXT PRINTED IN THE PICTURE: (A) unlabeled peptide: ki 0.02342 ± 0.001492 DOUBTS OF THE COPYIST ABOUT THIS PICTURE: Panel A, ki: no unit is printed with the value. The substance label 'unlabeled peptide' is taken from the printed x-axis title because the fit box names no substance. / Panel A: 'c 0.1 ± 0' in the fit box was left out as a fit parameter whose meaning is unclear.

The test system of series [2] is cytosolic calcium in MCF7 cells. Particulars: independent on IGF or heparin; ref [55]; cited from earlier work. From the text:
After that we compared the effects of IGFBP3 on elevation of intracellular calcium in these cells. […] However, no sign ...

For series [3], the system named is phospho-Beclin1 in MCF7 cells. In words: Beclin1 phosphorylation / autophagy immunoblot, MCF7 cells. The class given is cell-based, human. As to conditions: 1 μM IGFBP3, 1 h, serum free; wild type versus TM219 knockout; anti-phospho-beclin1, anti-LC3. As for the experimental part:
For phosphorylation assay of Beclin1 protein, we treated 6x10^6 MCF7 cells grown in DMEM serum free medium with 1 μM IGFBP3. Lysates were prepared in RIPA buffer in presence of 2X protease and phosphatase inhibitors (Thermofisher Scientific). Lysates were clarified by centrifugation at 10,000 rpm for 30 minutes at 4°C. Finally, the blotted membranes were probed with anti-TM219, LC3, calmodulin, phospho-beclin1, or β-actin. To quantify the ratio between LC3-II and LC3-I, we used an image densitometry method using ImageJ software.
(In general: A western blot detects proteins with antibodies after separation by electrophoresis.)

Another series relates to Vero cells. In words: DIC microscopy of internal vacuoles, Vero cells. The class given is cell-based. Particulars: wild type versus TM219 knockout Vero cells; 1 μM IGFBP3, 1 h, serum free.
Series [4] concerns TM219-calmodulin complex in THP1 cells. In words: co-immunoprecipitation of TM219 complex, anti-calmodulin immunoblot, THP1 cells. The series is classed as cell-based, human. Particulars: 1 μM IGFBP3, 1 h, serum free. As for the experimental part:
For immunoprecipitation of TM219 complex, we treated 6X10^6 THP1 cells grown in Roswell park memorial institute 1640 medium (PRIM) without serum with 1 μM IGFBP3 for 1 hour. Cells were lysed with immunoprecipitation buffer (1% NP-40, 150 mM NaCl, and 50 mM Tris pH 8.4 in the presence of 2 X protease inhibitors (Roche)). Crosslinking of mouse anti-TM219 antibodies to protein A-Sepharose was performed as previously described. Briefly, 1 mg of the antibody was incubated with 1 ml protein A-Sepharose beads (Thermofisher scientific), with continuous mixing at 4°C for 2 h. The beads were then centrifuged and washed five times with PBS and once with 200 mM sodium borate, pH 9. Equal volumes of 40 mM dimethylsuberimidate (Thermofisher scientific) in 200 mM sodium borate were mixed with the beads, and the suspension was incubated, with continuous mixing, at room temperature for 30 min. The reaction was terminated by addition of equal volumes of 400 mM ethanolamine, and the sample was incubated for an additional 30 min. The beads were packed into a 1-cm-diameter column (Bio-RAD) and washed three times with 2 bed volumes of PBS and once with 4 bed volumes of 100 mM glycine-HCl at pH 2.4 to remove non-cross-linked antibodies. Finally, the cross-linked antibody beads were washed with PBS until the pH reached 7 and stored at 4°C in PBS containing 0.02% sodium azide. […]

The test system of series [5] is TM219 complex (calmodulin, CaMKII) in MCF7 cells. In words: immunopurification of TM219 complex, anti-CaMKII / anti-calmodulin immunoblot, MCF7 cells. The series is classed as cell-based, human. Particulars: 1 μM IGFBP3, versus untreated and normal mouse antibody beads.
Series [6] can be described thus: fluorescence anisotropy control binding to empty nanodisc. As for the experimental part:
Reconstituted TM219 into 13 nm nanodisc and labeling of our purified calmodulin or IGFBP3 (R&D systems) with BODIPY-TRM-X-succinimidyl ester dye were described previously. […] Serial dilution of the TM219 short cytoplasmic peptide (1pM-10mM) was used. Fluorescence anisotropy assays were done in triplicates and data represent an average of three independent experiments. Each sample was run in triplicates and an average of 60 readings was used for calculation. Binding constants (KDs) or inhibition constant (Ki) were determined with Origin 7 (OriginLab) by fitting the data as described previously.
A general note: Polarisation of emitted light reports the rotation of a fluorescent probe.

Series [7] has as its system cytosolic calcium in MCF7 cells. In words: cytosolic calcium, colorimetric kit, MCF7 cells. Particulars: 1 μM IGFBP3, 5 min, serum free. The class given is cell-based, human. As for the experimental part: We used a colorimetric kit to measure the increase in the cytosolic calcium in MCF7 cells according to the provider recommendations (Abcam). MCF7 cells were grown in completed DMEM medium at density of 5x10^5 cells/ml in 6 well plates. We compared the effects of 1μM IGFBP3 on the wild type, TM219 knockout and untreated MCF7 cells after 5 minutes in serum free medium. As a positive control we used […] ionomycin (Thermofishter Scientific). As a negative control we pretreated MCF7 cells with […] BAPTA for 30 minutes (Thermofisher Scientific). Experiments were run in triplicate.

In the case of `CCN(CC)CCCC(C)Nc1ccnc2cc(Cl)ccc12` (centres unmarked) [chloroquine, reference compound], the “LC3-II punctate accumulation with chloroquine” value in series [1] (200 μM chloroquine plus 1 μM IGFBP3) is “this punctate stain was accumulated in the cytoplasm”; in [1] (200 μM chloroquine plus 1 μM IGFBP3, listed as CQ), “accumulates LCII positive vesicles in the cytoplasm of Vero cells”.
On to “AEQNPIYWARYADWLFTTPLLLLDLALLVDADEGTC-s-s-C(cy3) [pHLIP-cy3]”, for which the “insertion into plasma membrane of MDA-MB231 cells” value in the series on MDA-MB231 cells is “insertion of pHLIP-cy3 peptide into the plasma membrane of MAD-MB231 in both two dimension and three dimension cell cultures”. Further, the “insertion into plasma membrane of MCF7 cells” value in the series with MCF7 cells was “Staining of the cells with red dye indicates insertion of pHLIP-cy3 into the cell membrane of MCF7 cells”.
Take “Insulin-like growth factor binding protein 3 [IGFBP3]”: the “intracellular calcium release in MCF7 cells (previous studies)” value in series [2] is “activates intracellular rapid release of intracellular calcium in MCF7 cells”. In addition, the “autophagy activation in MCF7 cells” value in series [3] was “activates autophagy in MCF7 cells”. In addition, in [1] (Vero cells with LC3-mRFP, 1 μM IGFBP3, 1 h, serum free, mean +/- SEM plotted), the “LC3 processing (LC3-II punctate staining)” value is listed as “significant increase in processing of LC3; also recorded: significant increase in number of LCII punctate stain”. Further, the internal vacuoles entry with Vero cells is recorded as “TM219 wild type Vero cells demonstrated larger internal vacuoles after treatment with IGFBP3 compared to TM219 knockout Vero cells; also recorded: wild type Vero cells showed larger internal vacuoles”. Also, in [4], the “TM219-calmodulin complex formation (co-immunoprecipitation)” value was “immunoprecipitation with anti-TM219 consistently brought down calmodulin”. Besides, the “association of calmodulin and CaMKII with TM219 complex” value in series [5] was “TM219 protein recruits calmodulin and calmodulin dependent kinase II after treatment with IGFBP3; also recorded: Purified proteins from cells treated with IGFBP3 reacted specifically with anti-CaMKII antibody”. In addition, the “binding of labelled IGFBP3 to empty nanodisc” value in series [6] (empty nanodisc 0-2000 nM, fluorescence anisotropy) was “No specific binding was detected”. In addition, the “cytosolic calcium, TM219 knockout versus wild type” value in series [7] was “no significant difference”. In [7] (% of ionomycin reading, BAPTA reading subtracted), the cytosolic calcium entry was “triggered elevation of the cytosolic calcium in MCF7 independent of TM219 receptor; also recorded: relatively higher signal of calcium relative to untreated MCF7 cells”.
On to calmodulin, for which the “binding of calmodulin to empty nanodisc” value in series [6] (empty nanodisc 0-100 μM, 1 mM calcium chloride, 1 μM IGFBP3) is “No specific binding was detected; also recorded: No specific binding was observed”.
